Experimental data published in PubChem BioAssay AID248 (DTP/NCI, 2004).
Several values for one entry are separate records, joined by “and”; a condition that tells them apart may be missing. Equal values may be shown once. Toxic doses and inconclusive results are not listed. Rule as the data show it: active = T/C of 150% or more; inactive = T/C below 125%.

Test system: L1210 leukemia ip in BDF1 mice, survival T/C
Assay: NCI In Vivo Anticancer Drug Screen. Data for tumor model L1210 Leukemia (intraperitoneal) in B6D2F1 (BDF1) mice
Details: endpoint: mean survival time, higher = longer survival
Summary of the method: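 Survival endpoint. Drug-treated group vs vehicle group, expressed as T divided by C. Tumor passaged by transplantation.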

[1] = dose: 50.0 mg/kg/injection, schedule: Q01DX001 (ip), vehicle: saline
[2] = dose: 100.0 mg/kg/injection, schedule: Q01DX001 (ip), vehicle: saline
[3] = dose: 100.0 mg/kg/injection, schedule: Q01DX009 (ip), vehicle: saline with Tween-80
[4] = dose: 100.0 mg/kg/injection, schedule: Q04DX003 (ip), vehicle: saline with Tween-80
[5] = dose: 200.0 mg/kg/injection, schedule: Q01DX009 (ip), vehicle: saline with Tween-80
[6] = dose: 200.0 mg/kg/injection, schedule: Q04DX003 (ip), vehicle: saline with Tween-80
[7] = dose: 400.0 mg/kg/injection, schedule: Q01DX009 (ip), vehicle: saline with Tween-80
[8] = dose: 400.0 mg/kg/injection, schedule: Q04DX003 (ip), vehicle: saline with Tween-80
[9] = dose: 200.0 mg/kg/injection, schedule: Q01DX001 (ip), vehicle: saline
[10] = dose: 400.0 mg/kg/injection, schedule: Q01DX001 (ip), vehicle: saline
[11] = dose: 100.0 mg/kg/injection, schedule: Q01DX009 (ip), vehicle: saline
[12] = dose: 200.0 mg/kg/injection, schedule: Q01DX009 (ip), vehicle: saline
[13] = dose: 400.0 mg/kg/injection, schedule: Q01DX009 (ip), vehicle: saline
[14] = dose: 100.0 mg/kg/injection, schedule: Q04DX003 (ip), vehicle: acetone
[15] = dose: 200.0 mg/kg/injection, schedule: Q04DX003 (ip), vehicle: acetone
[16] = dose: 400.0 mg/kg/injection, schedule: Q04DX003 (ip), vehicle: acetone
[17] = dose: 75.0 mg/kg/injection, schedule: Q01DX001 (ip), vehicle: carboxymethylcellulose (CMC)
[18] = dose: 100.0 mg/kg/injection, schedule: Q04DX003 (ip), vehicle: Klucel (hydroxypropylcellulose) (HPC)
[19] = dose: 200.0 mg/kg/injection, schedule: Q04DX003 (ip), vehicle: Klucel (hydroxypropylcellulose) (HPC)
[20] = dose: 400.0 mg/kg/injection, schedule: Q04DX003 (ip), vehicle: Klucel (hydroxypropylcellulose) (HPC)

Measured: T/C

CCCCCCCCCC(=O)N1CCCCC1C (centres undefined)
inactive: dose: 25.0 mg/kg/injection, schedule: Q04DX002 (ip), vehicle: carboxymethylcellulose (CMC) 97 % of control and 99 % of control | dose: 50.0 mg/kg/injection, schedule: Q01DX001 (ip), vehicle: carboxymethylcellulose (CMC) 93 % of control | dose: 50.0 mg/kg/injection, schedule: Q01DX009 (ip), vehicle: carboxymethylcellulose (CMC) 98 % of control and 103 % of control | dose: 50.0 mg/kg/injection, schedule: Q04DX002 (ip), vehicle: carboxymethylcellulose (CMC) 96 % of control and 97 % of control | dose: 50.0 mg/kg/injection, schedule: Q04DX003 (ip), vehicle: carboxymethylcellulose (CMC) 95 % of control | dose: 100.0 mg/kg/injection, schedule: Q01DX001 (ip), vehicle: carboxymethylcellulose (CMC) 93 % of control | dose: 100.0 mg/kg/injection, schedule: Q01DX009 (ip), vehicle: carboxymethylcellulose (CMC) 94 % of control and 100 % of control | dose: 100.0 mg/kg/injection, schedule: Q04DX003 (ip), vehicle: carboxymethylcellulose (CMC) 97 % of control | dose: 200.0 mg/kg/injection, schedule: Q01DX001 (ip), vehicle: carboxymethylcellulose (CMC) 96 % of control | dose: 200.0 mg/kg/injection, schedule: Q01DX009 (ip), vehicle: carboxymethylcellulose (CMC) 100 % of control and 104 % of control | dose: 200.0 mg/kg/injection, schedule: Q04DX002 (ip), vehicle: carboxymethylcellulose (CMC) 107 % of control and 92 % of control | dose: 200.0 mg/kg/injection, schedule: Q04DX003 (ip), vehicle: carboxymethylcellulose (CMC) 95 % of control | dose: 400.0 mg/kg/injection, schedule: Q04DX002 (ip), vehicle: carboxymethylcellulose (CMC) 103 % of control and 90 % of control

O=c1cc[nH]c2ccc(Cl)cc12
inactive: [1] 117 % of control | [2] 102 % of control

COc1ccccc1SC(=O)N(C)C
inactive: [3] 102 % of control | [4] 105 % of control | [5] 98 % of control | [6] 96 % of control | [7] 93 % of control | [8] 113 % of control

CCOC(=N)c1cc([N+](=O)[O-])cc([N+](=O)[O-])c1
inactive: [2] 102 % of control | [9] 104 % of control | [10] 102 % of control

N#CN1CC(C(=O)N2CCCCC2)C=C2c3cccc4[nH]cc(c34)CC21 (centres undefined)
inactive: dose: 4.0 mg/kg/injection, schedule: Q04DX003 (ip), vehicle: saline 96 % of control | dose: 6.25 mg/kg/injection, schedule: Q04DX003 (ip), vehicle: saline 119 % of control | dose: 8.0 mg/kg/injection, schedule: Q04DX003 (ip), vehicle: saline 95 % of control | dose: 12.5 mg/kg/injection, schedule: Q04DX003 (ip), vehicle: saline 118 % of control | dose: 16.0 mg/kg/injection, schedule: Q04DX003 (ip), vehicle: saline 86 % of control | dose: 25.0 mg/kg/injection, schedule: Q04DX003 (ip), vehicle: saline 115 % of control | dose: 50.0 mg/kg/injection, schedule: Q04DX003 (ip), vehicle: saline 90 % of control

CCCCCCCCN(CC)CC
inactive: [1] 88 % of control | [2] 90 % of control | [9] 90 % of control

CCCCCCCCC(C(=O)c1ccccc1)C(O)(C(F)(F)F)C(F)(F)F (centres undefined)
inactive: [3] 100 % of control | [5] 106 % of control

c1ccc(P2CCc3[nH]c4ccccc4c3C2)cc1 (centres undefined)
inactive: [3] 97 % of control | dose: 100.0 mg/kg/injection, schedule: Q04DX003 (ip), vehicle: saline 100 % of control | [5] 110 % of control | dose: 200.0 mg/kg/injection, schedule: Q04DX003 (ip), vehicle: saline 96 % of control | [7] 100 % of control | dose: 400.0 mg/kg/injection, schedule: Q04DX003 (ip), vehicle: saline 113 % of control

CCCCCCCCN1C(=O)C2C(C1=O)C1(Cl)C(Cl)=C(Cl)C2(Cl)C1(Cl)Cl (centres undefined)
inactive: [11] 95 % of control | [12] 97 % of control | [13] 93 % of control

COc1ccc(O)c(CC(C)C)c1
inactive: [14] 96 % of control | [15] 102 % of control | [16] 93 % of control

COc1cccc(/C=C/C(=O)C2CCCCC2)c1
inactive: dose: 50.0 mg/kg/injection, schedule: Q01DX009 (ip), vehicle: saline with Tween-80 101 % of control | [3] 97 % of control | [5] 101 % of control

COc1ccc2nc3cc(Cl)ccc3c(Nc3ccc(O)c(CNCCO)c3)c2c1
inactive: [17] 101 % of control

CCOC(=O)C(=Cc1cccc2ccccc12)C(=O)OCC
inactive: dose: 100.0 mg/kg/injection, schedule: Q01DX009 (ip), vehicle: Klucel (hydroxypropylcellulose) (HPC) 98 % of control | [18] 101 % of control | dose: 200.0 mg/kg/injection, schedule: Q01DX009 (ip), vehicle: Klucel (hydroxypropylcellulose) (HPC) 105 % of control | [19] 98 % of control | dose: 400.0 mg/kg/injection, schedule: Q01DX009 (ip), vehicle: Klucel (hydroxypropylcellulose) (HPC) 93 % of control | [20] 92 % of control

O=S1(=O)CCCCC1
inactive: dose: 75.0 mg/kg/injection, schedule: Q01DX009 (ip), vehicle: other 106 % of control | dose: 100.0 mg/kg/injection, schedule: Q04DX003 (ip), vehicle: saline sonified 95 % of control | dose: 150.0 mg/kg/injection, schedule: Q01DX009 (ip), vehicle: other 101 % of control | dose: 200.0 mg/kg/injection, schedule: Q04DX003 (ip), vehicle: saline sonified 93 % of control | dose: 300.0 mg/kg/injection, schedule: Q01DX009 (ip), vehicle: other 93 % of control | dose: 400.0 mg/kg/injection, schedule: Q04DX003 (ip), vehicle: saline sonified 95 % of control

Clc1ccc(N=NNc2ccc(Cl)cc2)cc1
inactive: [3] 91 % of control | [4] 96 % of control | [5] 92 % of control | [6] 105 % of control | [7] 92 % of control | [8] 92 % of control

CCC(CC)(c1ccccc1)C(OC(N)=O)c1ccccc1 (centres undefined)
inactive: [1] 90 % of control | [2] 101 % of control | [9] 92 % of control | [10] 90 % of control

O=C1C(=O)c2ccccc2C(O)=C1C(C1=C(O)c2ccccc2C(=O)C1=O)c1ccc(Cl)c(Cl)c1
inactive: [17] 94 % of control

COC(=O)c1c2c(nc3ccccc13)-c1ccccc1C(C)(C)C2Br (centres undefined)
inactive: [18] 95 % of control | [19] 92 % of control | [20] 95 % of control

CC(=O)CC(C)=NCCN=C(C)CC(C)=O.[Ni]
inactive: dose: 1.56 mg/kg/injection, schedule: Q01DX009 (ip), vehicle: gum acacia 103 % of control | dose: 3.12 mg/kg/injection, schedule: Q01DX009 (ip), vehicle: gum acacia 104 % of control | dose: 6.25 mg/kg/injection, schedule: Q01DX009 (ip), vehicle: gum acacia 100 % of control | dose: 12.5 mg/kg/injection, schedule: Q01DX009 (ip), vehicle: gum acacia 99 % of control | dose: 12.5 mg/kg/injection, schedule: Q04DX003 (ip), vehicle: gum acacia 117 % of control | dose: 25.0 mg/kg/injection, schedule: Q04DX003 (ip), vehicle: gum acacia 118 % of control | dose: 50.0 mg/kg/injection, schedule: Q04DX003 (ip), vehicle: gum acacia 103 % of control

CCN(C(C)=O)c1ccc([N+](=O)[O-])cc1
inactive: [2] 105 % of control | [9] 96 % of control | [10] 105 % of control

CCCCCCCC(=O)Nc1ccc(F)cc1
inactive: [14] 95 % of control | [15] 95 % of control | [16] 90 % of control

CC(C)OCCCO
inactive: [11] 87 % of control | [12] 92 % of control | [13] 97 % of control

CC1(C)OC2C3CC(C2O1)n1cnc2c(N)nc[n+](c21)C3 (centres undefined)
inactive: dose: 75.0 mg/kg/injection, schedule: Q01DX001 (ip), vehicle: saline 120 % of control | dose: 150.0 mg/kg/injection, schedule: Q01DX001 (ip), vehicle: saline 101 % of control | dose: 300.0 mg/kg/injection, schedule: Q01DX001 (ip), vehicle: saline 106 % of control

COc1nc(N)c(C#N)c(C#N)c1C#N
inactive: dose: 15.0 mg/kg/injection, schedule: Q01DX001 (ip), vehicle: carboxymethylcellulose (CMC) 95 % of control | dose: 30.0 mg/kg/injection, schedule: Q01DX001 (ip), vehicle: carboxymethylcellulose (CMC) 95 % of control
